From publication PMC4707489, “A novel cell-penetrating peptide suppresses breast tumorigenesis by inhibiting β-catenin/LEF-1 signaling” (Scientific Reports, 2016) come the findings set out here.

One data set concerns ZR-75-30 cells. Description: Cell growth (CCK-8), HER2 positive cell line. The class given is cell-based, human. The note with it: ZR-75-30, 100 μmol/l, CCK-8 at 48 hr post-transfection (Fig. 6f).
Data set [1] in a line: Body weight and toxicity in xenograft models. The class given is in vivo, mouse. An excerpt: (§1) All animal experiments were approved by the Kaohsiung Medical University Institutional Animal Care and Use Committee (IACUC Approval No: 101156) and we accordance with the approved guidelines. Female nude mice (4–5 weeks old) were obtained from the National Laboratory Animal Center (Taipei, Taiwan). Xenograft tumor models were established by subcutaneous injection of 1 × 10^7 MCF-7-YFP or MDA-MB-231-GFP cells into the right flanks of mice. Mice with palpable tumors were randomly divided into three groups with five animals in each group. The mice were treated with control peptide, […], 1 and 10 mg/kg TAT-NLS-BLBD-6 by intratumoral injection once every 2 days for 35 days. The fluorescence density was analyzed by an In Vivo Imaging System (IVIS) (Berthold Technologies, Bad Wildbad, Germany), and the tumor volumes (V) of nude mice were calculated by: V = length × diameter^2 × 0.5. For zebrafish xenotransplantation, zebrafishes (Danio rerio) were maintained at 28 °C in an air incubator, and 1 × 10^4 MCF-7-GFP or MDA-MB-231-GFP cells combined with TAT-NLS-BLBD-6 or control peptide were injected into the zebrafish embryos according to the previously described protocol. The fluorescence density was measured 24 and 28 hr after injection using an epifluorescence microscope.

The subject of the next data set is MDA-MB-231 cells. Nature of the data set: Cell cycle analysis, sub-G1 (propidium iodide, flow cytometry). The format is cell-based, human. The note with it: MDA-MB-231, 100 μmol/l peptide, flow cytometry (Fig. 3a). As for the experimental part:
MCF-7 and MDA-MB-231 cells were plated in 6-well plates for 24 hr, and the medium was replaced with fresh culture medium containing 100 μmol/l peptide. After incubation for 24 hr, the cells were harvested by trypsinization and then fixed with 70% 4 °C ethanol. Intracellular DNA was stained with […] propidium iodide in the dark for 30 min at room temperature, and the percentages of sub-G1 cells were determined by flow cytometry (BD LSRII analyzer; BD Biosciences).

Data set [2] relates to MCF-7-YFP cells xenograft. Nature of the data set: Xenograft tumor growth in nude mice. The note with it: MCF-7 xenograft, 1 and 10 mg/kg intratumoral once every 2 days for 35 days, n = 5 per group, vs control peptide. The class given is in vivo, mouse.
Excerpt: as §1

Data set [3] concerns MDA-MB-231-GFP cells xenograft. Nature of the data set: Xenograft tumor growth in nude mice. The class given is in vivo, mouse. The note with it: MDA-MB-231 xenograft, 1 and 10 mg/kg intratumoral once every 2 days for 35 days, n = 5 per group, vs control peptide.
Excerpt: as §1

The subject of data set [4] is β-catenin/TCF4/LEF downstream genes. Nature of the data set: Q-PCR of downstream genes in ZR-75-30. The format is cell-based, human. The note with it: ZR-75-30, 100 μmol/l, 48 hr post-transfection, relative to TAT-NLS-BLBD-6m (Fig. 6g). On the procedure:
Total RNA was isolated by Trizol reagent (Invitrogen, Carlsbad, CA, USA) and reverse transcribed to produce cDNA using the Deoxy + HiSpec reverse transcriptase kit (Yeastern, Taipei, Taiwan) according to the manufacturer instructions. Q-PCR was analyzed with SYBR Green Master Mix (Applied Biosystems, Stockholm, Sweden) and subjected to quantitation in an […]. The primers used for PCR are given in Supplementary Table S5 online. The Q-PCR data were normalized to 18S cDNA levels.

The next data set has as its system β-catenin. Nature of the data set: Peptide-protein interaction by immunoprecipitation and PLA. The format is binding, human. As for the experimental part: Immunoprecipitation and western blotting were performed as described previously. MCF-7 and MDA-MB-231 cells were harvested in 4 °C phosphate-buffered saline and cell pellets were lysed with RIPA lysis buffer (Millipore, Bedford, MA, USA) for 30 min on ice. Cell lysis supernatant liquid was obtained by centrifugation at 10,000 × g for 10 min, incubated with protein-G beads (Roche, Indianapolis, IN) and anti-β-catenin, and subjected to western blotting. For the western blotting assay, cellular extract proteins were separated by SDS-polyacrylamide gel (SDS-PAGE) and transferred to nitrocellulose membrane (Millipore) using a dry transfer apparatus (Bio-Rad). […]
MCF-7 and MDA-MB-231 cells were cultured in 35-mm plates with cover slides on the plate bottom and treated with NLS-BLBD-6, TAT-BLBD-6 and TAT-NLS-BLBD-6 peptide for 24 hr. […] For the immunofluorescence assay, the slides were incubated with primary antibodies, anti-β-catenin (Epitomics) and anti-TAT (Santa Cruz), for 6 hr, and Alexa-488 fluorescence secondary antibodies for 1 hr. […] For the TUNEL assay, apoptosis was analyzed by the Apo-BrdU-red DNA Fragmentation Assay kit, according to the manufacturer’s protocol (BioVision, Mountain View, CA, USA). For the PLA, the protein–protein interaction assay was analyzed by Duolink® using PLA® Technology, according to the manufacturer’s protocol (Olink Bioscience, Uppsala, Sweden). […]

Description for ZR-75-30 cells: Cell growth was analyzed using 2-(2-methoxy-4-nitrophenyl)-3-(4-nitroph enyl)-5-(2,4-disulfophenyl)-2H-tetrazolium, monosodium salt, and the Cell Counting Kit-8 (CCK-8, Sigma). […] After culturing for another 48 hr, cell growth was analyzed by CCK-8 and the optical density was detected at 450 nm. The growth ratio was normalized to the cells without treatment.

As to H-TAT-NLS-ATDEMIPF-NH2 [TAT-NLS-BLBD-6], the cell growth result with ZR-75-30 cells is recorded as “inhibits the growth”. For the same substance, the body weight result in data set [1] (nude mice, 1 and 10 mg/kg intratumoral once every 2 days for 35 days, vs control peptide) is given as “without having any effect on body weight”. Also, the signs of toxicity result in data set [1] (nude mouse and zebrafish xenotransplantation models) was “no signs of toxicity”. Besides, the “sub-G1 phase region (pro-apoptotic effect)” value with MDA-MB-231 cells was determined as 43.10%. Besides, the tumor growth result in data set [2] and in data set [3] was “inhibited tumor growth” each time. Besides, the “expression of β-catenin/TCF4/LEF downstream genes” value in data set [4] is reported as “inhibits”. Also, the “binding to β-catenin” value in the data set on β-catenin (MCF-7 cell nuclei, immunoprecipitation and PLA, 2 hr post-transfection (Fig. 2b,c)) is on record as “bound to the β-catenin elements”; with β-catenin (MDA-MB-231 cell nuclei, PLA, 100 μmol/l, 2 hr post-transfection (Fig. 2c)) it was “bound to the β-catenin elements”.
